In patent US6730295B2, “Anionic polymers as species specific antibacterial agents” (Genzyme Corporation, priority 2000, dated 2004):

Columns and labels:
Experiment in all cases: MIC assay (NCCLS broth microdilution)
Type in all cases: cell-based
N. meningitidis = conditions: species 5 = N. meningitidis; 18-24 hr at 35° C., Mueller-Hinton broth
Description: (§1) The minimum inhibitory concentration (MIC) assay is performed according to the Performance Standards for Antimicrobial Susceptibility Testing, 1998, vol. M 100-S8, Eighth Informational Supplement, NCCLS, 940 West Valley Road, Suite 1400, Wayne, Pa. 19087.
(§2) Polymers to be tested were dissolved in 0.85% saline to a final concentration of either 830 or 1000 μg/ml, the pH was adjusted to 7.0 and the solution was filter-sterilized through a 0.22 μm filter. Two-fold serial dilutions of polymer were prepared in Mueller-Hinton broth with cations aliquotted into 96-well microtiter plates. The plates were then inoculated with […] of target organism, and incubated 18-24 hr at 35° C. The optical density (OD) was then read at 590 nm, and microorganism growth was scored (OD >0.1 is considered to be growth; OD <0.1 is considered growth inhibition). The MIC value was defined as the lowest concentration of compound which inhibits growth.

E. Faecium = conditions: species 2 = E. Faecium; 18-24 hr at 35° C., Mueller-Hinton broth
Description: as §1, §2

S. pneumoniae = conditions: species 4 = S. pneumoniae; 18-24 hr at 35° C., Mueller-Hinton broth
Description: as §1, §2

E. coli = conditions: species 1 = E. coli; 18-24 hr at 35° C., Mueller-Hinton broth
Description: as §1, §2

S. sanguis = conditions: species 3 = S. sanguis; 18-24 hr at 35° C., Mueller-Hinton broth
Description: as §1, §2

Branhamella catarrhalis = conditions: species 6 = Branhamella catarrhalis; 18-24 hr at 35° C., Mueller-Hinton broth
Description: as §1, §2

Compound: CCCCCCCCCCCCOS(=O)(=O)[O-].[Na+] [sodium dodecyl sulfate]
- minimum inhibitory concentration (MIC) (N. meningitidis): 28
- minimum inhibitory concentration (MIC) (E. Faecium): >83
- minimum inhibitory concentration (MIC) (S. pneumoniae): 28
- minimum inhibitory concentration (MIC) (E. coli): >83
- minimum inhibitory concentration (MIC) (S. sanguis): 28
- minimum inhibitory concentration (MIC) (Branhamella catarrhalis): 9
